Assay results: patent US8217071B2, “Use of inhibitors of the degradation of p27, in particular Argyrin and derivatives thereof, for the treatment of proliferative diseases” (Helmholtz Zentrum für Infektionsforschung GmbH, priority 2007, dated 2012)
Numbered stars: 1 amine (or outer) side, 2 acyl side, 3 side chain; on linkers, the order of the positions; unused ones are H or OH. Square brackets hold non-standard residues; d marks the D form. Peptide text beside a SMILES is read from it. dAla(ψthiazole) = C[C@@H](N[*:1])c1nc(C(=O)[*:2])cs1; Trp(4-OMe) = COc1cccc2[nH]cc(C[C@H](N)C(=O)O)c12; Dha = C=C(N)C(=O)O; Sar = CNCC(=O)O

Key:
[1] = test system: mouse embryonic fibroblasts from p27^kip1 wildtype mice; test: Apoptosis (sub-G1 fraction) by flow cytometry in p27 wildtype MEF; format: cell-based; details: for apoptosis in p27 wildtype MEF: sub G1 fraction
Description: (§1) Next the inventors tested whether the stabilization of p27 was indeed required for the apoptosis inducing function of Argyrin A or was merely a consequence of proteasome inhibition. For this the inventors treated immortalized mouse embryonic fibroblasts from p27^kip1 wildtype or knockout mice with Argyrin A or the proteasome inhibitor bortezomib and assayed cell cycle distribution and apoptosis by flow cytometry. […] These differences in sensitivity in response to Argyrin A treatment were not due to differences in the accumulation of other proteasomal substrates in p27 wildtype and knockout cells as p53 and p21 levels increased in both cell lines in response to Argyrin A (FIG. 6B). To extend this observation to human cancer cells the inventors reduced the levels of p27^kip1 in HeLa cells using p27^kip1 specific siRNA.
(§2) The results shown are the average numbers for six independent experiments. b+d) Wildtype (b) and p27 knockout (d) MEF were treated with Argyrin A or transfected with siRNAs specific for the β1, β2 or β5 subunit of the proteasome for 24 hours. The graphs show the remaining catalytic activity of the different proteasome subunits after Argyrin A or siRNA treatment compared to an untreated control (n=3). The western blots show the expression of the β1, β2 or β5 subunit of the proteasome in proliferating cells and after treatment with siRNAs for a representative experiment. c+e) Flow cytometric measurements of the number of apoptotic cells (sub-G1 fraction) after Argyrin A or siRNA treatment in wildtype (c) or p27 knockout (E) MEF. f) HeLa cells were treated with Argyrin A or siRNA against p27 or Argyrin A and siRNA against p27 for either 24 or 48 hours.
(§3) MTT assays were done as previously described (Sasse, F. et al. Argyrins, immunosuppressive cyclic peptides from myxobacteria. I. Production, isolation, physico-chemical and biological properties. J Antibiot (Tokyo) 55, 543-51 (2002)). TUNEL staining of tissue sections was performed on 10 micrometer sections which were deparafinised and treated as recommended by the manufacturer. (In Situ Cell Death Detection Kit, Fluorescein; ROCHE, Cat #11 684 795 910). Flow cytometric analysis of cultured cells was done using a Becton Dickinson fluorescence cytometer as previously described (Malek, N. P. et al. A mouse knock-in model exposes sequential proteolytic pathways that regulate p27^Kip1 in G1 and S phase. Nature 413, 323-7 (2001)). Analysis of the distribution of cells in the cell cycle and the sub-G1 fraction was done using Cell Quest software. A histone-associated-DNA-fragments ELISA was used to determine the number of apoptotic cells according to manufacturers instructions (Roche #11 774425001).

[2] = test system: mouse embryonic fibroblasts from p27^kip1 knockout mice; test: Apoptosis (sub-G1 fraction) by flow cytometry in p27 knockout MEF; format: cell-based; details: for apoptosis in p27 knockout MEF: sub G1 fraction
Description: as §1, §2, §3

[3] = test system: MCF7 cells; test: Gene expression signature (DNA microarray) of MCF7 cells; format: cell-based, human
Protocol: The inventors decided to compare the cellular responses of cells treated with Argyrin A or bortezomib directly. To this end the inventors determined the gene expression signature of MCF7 cells in response to Argyrin A or bortezomib and compared the resulting gene expression profiles. […] As shown in FIG. 2G the gene expression profiles of MCF7 cells which were treated with either bortezomib or Argyrin A differ dramatically. While bortezomib treatment led to changes in the expression of more than 10900 genes, only about 500 genes changed in response to Argyrin A treatment. Among these genes, 311 were affected by both bortezomib and Argyrin A, respectively.
Quality and integrity of the total RNA isolated was controlled by running all samples on an Agilent Technologies 2100 Bioanalyzer (Agilent Technologies; Waldbronn, Germany). For biotin-labelled target synthesis starting from 3 μg of total RNA, reactions were performed using standard protocols supplied by the manufacturer (Affymetrix; Santa Clara, Calif.). In each case 10 μg of labelled cRNA were hybridized to an identical lot of Affymetrix GeneChips HG-U133 2.0 for 16 hours at 45° C. After hybridisation the GeneChips were washed, stained with SA-PE and read using an Affymetrix GeneChip fluidic station and scanner.
Analysis of microarray data was performed using the Affymetrix GCOS 1.2 software. […]

[4] = test system: HUVEC; test: In vitro capillary-like tube structure formation on matrigel; format: cell-based, human
Description: The inventors then asked whether Argyrin A was also able to prevent the formation of capillary like tube structures formed by HUVEC on matrigel, an assay frequently used to test the ability of a compound to interfere with neovascularization. […] The addition of Argyrin A led to a 40% reduction in tube formation in this assay. Importantly transfection of siRNA against p27 protected endothelial cells against the inhibitory activity of Argyrin A. The effects exerted by Bortezomib in this assay were smaller and not rescued by loss of p27. In addition to tube length the inventors also quantitated the number of blood vessel like structures formed by HUVECS after treatment with Argyrin A or bortezomib (FIG. 4F).
Treatment with Argyrin A or bortezomib was started when these tumours reached a volume of 200 mm3. […] (n=8 Argyrin A, n=8 Bortezomib, n=6 PBS/EtOH) b) The pictures show the macroscopic appearance of a xenotransplant tumour after 10 days of treatment with Argyrin A. Note the large necrotic centre of the explanted tumour. c) After a single injection of Argyrin A (0.15 mg/kg bodyweight) or bortezomib (1.0 mg/kg bodyweight) tumours were explanted at the indicated time points and blood vessels in the tumour tissue were co-stained for CD31 and p27. […] Note the swelling of the endothelial cell (“E”) and the occlusion of the lumen (“L”) by erythrocytes after 90 minutes of Argyrin A treatment. The arrow marks the detachment of endothelial cells after 48 h of Argyrin A treatment. […] Tube length (f) and blood vessel like […] structures were determined using photographs of HUVEC cultures. The micrographs show representative examples of HUVEC cultures under the indicated conditions.
Primary microvascular endothelial cells (HMVEC) were isolated from human foreskin. The cells were kept at 37° C. and 10% CO2 in EGM-2 MV from Cambrex which includes the basal medium (EBM-2), FBS, hydrocortisone, hFGF-B, VEGF, R3-IGF, ascorbic acid, hEGF, gentamicin and amphotericin. The effect of argyrin A or bortezomib on in vitro angiogenesis was determined by matrigel capillary-like tube structure formation assay. To examine the effect of the different compounds on in vitro angiogenesis, HMVECs were seeded in 96-well culture plates precoated with Matrigel (BD Biosciences, #354248) and exposed to argyrin A or bortezomib. Enclosed networks of tube structures from three randomly chosen fields were scored under the microscope (Leica, Cambridge, United Kingdom). Pictures were taken with an Axio Vision 3.1 Zeiss camera and scored by determining tube length and the formation of closed vessel like structures.

[5] = Argyrin A 1 μM, bortezomib 10 nM

CC(C)C[C@H](NC(=O)[C@H](Cc1ccccc1)NC(=O)c1cnccn1)B(O)O [bortezomib, reference compound]
apoptosis in p27 wildtype MEF [1]: massive apoptosis
apoptosis in p27 wildtype MEF ([1]; listed as Bortezomib): induced apoptosis
apoptosis in p27 knockout MEF [2]: massive apoptosis
apoptosis in p27 knockout MEF ([2]; listed as Bortezomib): induced apoptosis
number of genes with changed expression [3]: more than 10900 genes
number of blood vessel like structures [4, 5]: significant reduction
effect on tube formation compared with Argyrin A ([4]; bortezomib 10 nM): smaller

C=C1NC(=O)[C@@H](C)NC(=O)CNC(=O)[C@H](Cc2c[nH]c3cccc(OC)c23)NC(=O)[C@H](Cc2c[nH]c3ccccc23)NC(=O)c2csc(n2)[C@@H](C)NC(=O)CN(C)C1=O [Argyrin A] (cyclo(W[Trp(4-OMe)]G[dA][Dha][Sar][dAla(ψthiazole)]))
apoptosis, share of all cells, wildtype fibroblasts ([1]; after 24 hours): 38%
apoptosis in p27 wildtype MEF [1]: induced apoptosis
p27^kip1 knockout fibroblasts undergoing apoptotic cell death ([2]; after 60 hours of treatment): ten
apoptosis, share of all fibroblasts derived from p27 knockout mice ([2]; comparable levels of proteasome inhibition, 24 hours): 5%
number of genes with changed expression [3]: about 500 genes
number of blood vessel like structures [4, 5]: significant reduction
reduction in tube formation (relative length of capillary tubes) ([4]; VEGF stimulation, Argyrin A 1 μM): 40%
